For assay [1], the target named is T1, Y2R (Homo sapiens, UniProt P49146).
T1 sequence (P49146 1-381): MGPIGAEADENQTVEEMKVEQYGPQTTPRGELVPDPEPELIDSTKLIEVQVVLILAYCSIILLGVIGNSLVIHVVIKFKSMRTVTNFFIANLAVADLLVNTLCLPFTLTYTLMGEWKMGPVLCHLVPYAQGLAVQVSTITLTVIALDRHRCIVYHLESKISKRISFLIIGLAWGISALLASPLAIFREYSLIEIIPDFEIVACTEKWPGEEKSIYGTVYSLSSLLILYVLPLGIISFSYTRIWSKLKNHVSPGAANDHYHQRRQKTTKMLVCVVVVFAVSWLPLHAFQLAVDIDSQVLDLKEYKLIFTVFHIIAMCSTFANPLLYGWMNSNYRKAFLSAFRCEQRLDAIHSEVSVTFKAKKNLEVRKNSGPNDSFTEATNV
It is filed as binding. The settings on record: high- and low-affinity state.

For assay [2], the target named is Nluc-Y1R, wild type (human) (UniProt P25929). In words: FRET or BRET. (Bioluminescence resonance energy transfer reports proximity on the nanometre scale.)
In assay [3] the target is Nluc-Y4R, wild type (human) (UniProt P50391). The assay is described as follows: FRET or BRET.
For assay [4] the target is unchanged. The assay is described as follows: FRET or BRET. This is another data set of the same source.
The next assay has as its target Nluc-Y4R Q^5.46A (human) (UniProt P50391). In words: FRET or BRET.
The test system of assay [5] is Y2R. The settings on record: cited from earlier work.
In a further assay the test system is Y1R. As to conditions: cited from earlier work.
Assay [6] relates to Y4R. As to conditions: cited from earlier work.
Assay [7] deals with Y4R. As to conditions: cited from earlier work. This is another data set of the same source.

Like-named read-outs stand apart in the source and are kept apart here. No end group written: not given here.

Chain of Nluc-Y4R, wild type (human) (P50391 whole entry): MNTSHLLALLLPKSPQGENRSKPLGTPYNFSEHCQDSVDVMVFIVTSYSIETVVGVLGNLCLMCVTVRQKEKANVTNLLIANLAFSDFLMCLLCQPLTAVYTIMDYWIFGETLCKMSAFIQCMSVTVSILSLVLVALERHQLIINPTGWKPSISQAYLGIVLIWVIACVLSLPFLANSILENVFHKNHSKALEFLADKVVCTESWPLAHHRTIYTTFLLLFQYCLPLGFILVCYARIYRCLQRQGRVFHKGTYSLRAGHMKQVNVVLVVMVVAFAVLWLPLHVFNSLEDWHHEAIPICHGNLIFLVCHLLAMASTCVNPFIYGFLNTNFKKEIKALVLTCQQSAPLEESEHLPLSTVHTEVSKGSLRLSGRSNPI
Chain of Nluc-Y1R, wild type (human) (P25929 whole entry): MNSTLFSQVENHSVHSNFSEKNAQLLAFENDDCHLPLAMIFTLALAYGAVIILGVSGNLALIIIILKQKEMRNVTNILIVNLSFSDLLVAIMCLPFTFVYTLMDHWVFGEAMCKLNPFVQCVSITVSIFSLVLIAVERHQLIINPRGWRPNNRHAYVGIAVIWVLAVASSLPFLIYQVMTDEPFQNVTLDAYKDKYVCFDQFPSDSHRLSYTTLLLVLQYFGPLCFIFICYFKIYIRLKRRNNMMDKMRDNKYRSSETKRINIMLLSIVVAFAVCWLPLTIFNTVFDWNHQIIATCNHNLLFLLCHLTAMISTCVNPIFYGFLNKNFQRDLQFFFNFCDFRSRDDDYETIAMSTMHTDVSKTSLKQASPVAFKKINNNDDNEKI
Chain of Nluc-Y4R Q^5.46A (human) (P50391 whole entry): as the sequence (P50391 whole entry) above

For `CCN(CC)C(=O)C(c1ccccc1)N1CCN(c2ccc(NC(=O)c3ccccc3-c3cccnc3)cc2F)CC1` (stereo not drawn) [JNJ-31020028], the “affinity (Ki) in both states” value on Y2R [1] is reported as “essentially the same affinity”. With K18(TAMRA)-NPY (peptide), the KD,2 (low-affinity state) in assay [2] stood at 126 nM. For K22(TAMRA),Nle17,30-PP (peptide), the results for the KD,1 (high-affinity state) in [3] and in assay [4] were 26 nM and 18 nM, respectively. Besides, the fold reduction of affinity against wild-type Y4R with Nluc-Y4R Q^5.46A (human) was 100 fold. For the compound NPY mutant T32A, the binding affinity entry in the assay with Y2R [5], in the assay with Y1R (Y1R) and in the assay on Y4R [6] was “loss of binding affinity” in each case. Regarding NPY(2–36): truncated NPY analog, the “reduction of affinity and activity, respectively” value in the assay on Y1R (Y1R) is “more than 50 fold”. As for “NPY(3–36): N-terminally truncated NPY analog”, the affinity result in the assay on Y2R [5] is given as “subnanomolar affinity”. In the assay with Y1R (Y1R), the “reduction of affinity and activity, respectively” value is “more than 50 fold”. Take “NPY(13–36): N-terminally truncated NPY analog”: the affinity entry in the assay on Y2R [5] is on record as “subnanomolar affinity”. Turning to “NPY(18–36): N-terminally truncated NPY analog”, the affinity entry in the assay on Y2R [5] is reported as “subnanomolar affinity”. Consider “NPY(22–36): N-terminally truncated NPY analog”, for which, in the assay with Y2R [5], the affinity entry is “subnanomolar affinity”. “PP(2–36): N-terminally truncated PP (PLEPVYPGDNATPEQMAQYAADLRRYINMLTRPRY; ends and bridges not checked; UniProt P01298 31-65, looked up, fragment)”: the functional impairment entry in the assay on Y4R [7] is reported as “limited functional impairment”. Take “PYY: 36-residue C-terminally amidated neuropeptide”: the binding entry in the assay on Y1R (Y1R F286A) is listed as “marked loss”. For Q34G variant of NPY, in the assay on Y1R (Y1R), the “loss of binding affinity compared to NPY” value is recorded as 15 fold. Q34P-substituted analog of NPY: the binding result with Y2R [5] is reported as “not tolerated”; with Y4R [6], “improved binding”. The affinity entry with Y1R (Y1R) is listed as “wild-type affinity”. In the assay with Y1R (Y1R, exchange of Q34 by proline), the binding affinity entry is given as “unchanged binding affinity”.

The values above are taken from PMC9067930 (Science Advances, 2022).
